According to article PMC10150366, “Discovery of an In Vivo Chemical Probe for BCL6 Inhibition by Optimization of Tricyclic Quinolinones” (Journal of Medicinal Chemistry, 2023):

Legend:
[1] = target: T1, EDNRA (Homo sapiens, UniProt P25101); assay: SAFETYscan Calcium Flux EDNRA Agonist; format: cell-based
T1 sequence (P25101 21-427): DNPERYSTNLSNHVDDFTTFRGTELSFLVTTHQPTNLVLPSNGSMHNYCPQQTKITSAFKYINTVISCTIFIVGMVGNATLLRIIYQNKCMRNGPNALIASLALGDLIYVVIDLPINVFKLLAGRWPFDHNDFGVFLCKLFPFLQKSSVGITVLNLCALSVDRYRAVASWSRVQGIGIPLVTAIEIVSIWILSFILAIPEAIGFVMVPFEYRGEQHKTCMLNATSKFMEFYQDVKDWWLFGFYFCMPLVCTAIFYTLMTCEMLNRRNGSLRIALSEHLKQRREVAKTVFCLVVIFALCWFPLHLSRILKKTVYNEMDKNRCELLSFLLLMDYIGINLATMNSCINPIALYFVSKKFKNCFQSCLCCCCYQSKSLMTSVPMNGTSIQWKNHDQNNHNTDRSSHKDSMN
From the text: (§1) Supplement jm3c00155_si_002.xlsx, sheet "SAFETYScan" | column: RC50 (uM); Max Response

[2] = target: T2, CHRM2 (Homo sapiens, UniProt P08172); assay: SAFETYscan cAMP CHRM2 Agonist; format: cell-based
T2 sequence (P08172 1-466): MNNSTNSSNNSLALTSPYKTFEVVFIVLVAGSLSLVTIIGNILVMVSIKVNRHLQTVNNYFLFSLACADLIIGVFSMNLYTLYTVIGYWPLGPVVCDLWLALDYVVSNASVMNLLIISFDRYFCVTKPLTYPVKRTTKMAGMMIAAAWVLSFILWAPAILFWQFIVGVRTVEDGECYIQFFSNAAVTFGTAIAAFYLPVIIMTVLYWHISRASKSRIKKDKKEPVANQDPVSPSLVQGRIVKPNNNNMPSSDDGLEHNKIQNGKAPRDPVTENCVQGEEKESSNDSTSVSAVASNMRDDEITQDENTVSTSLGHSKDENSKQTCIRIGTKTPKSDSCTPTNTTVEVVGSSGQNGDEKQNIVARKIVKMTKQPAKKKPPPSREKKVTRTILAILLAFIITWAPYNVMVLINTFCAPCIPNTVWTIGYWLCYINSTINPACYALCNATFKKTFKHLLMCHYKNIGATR
From the text: (§2) Supplement jm3c00155_si_002.xlsx, sheet "SAFETYScan" | column: RC50 (uM); Hill; Max Response

[3] = target: OPRD1 (Homo sapiens, UniProt P41143); assay: SAFETYscan cAMP OPRD1 Agonist; format: cell-based
From the text: as §1

[4] = target: HTR2B (Homo sapiens, UniProt P41595); assay: SAFETYscan Calcium Flux HTR2B Agonist; format: cell-based
From the text: as §1

[5] = target: T3, CCKAR (Homo sapiens, UniProt P32238); assay: SAFETYscan Calcium Flux CCKAR Agonist; format: cell-based
T3 sequence (P32238 1-428): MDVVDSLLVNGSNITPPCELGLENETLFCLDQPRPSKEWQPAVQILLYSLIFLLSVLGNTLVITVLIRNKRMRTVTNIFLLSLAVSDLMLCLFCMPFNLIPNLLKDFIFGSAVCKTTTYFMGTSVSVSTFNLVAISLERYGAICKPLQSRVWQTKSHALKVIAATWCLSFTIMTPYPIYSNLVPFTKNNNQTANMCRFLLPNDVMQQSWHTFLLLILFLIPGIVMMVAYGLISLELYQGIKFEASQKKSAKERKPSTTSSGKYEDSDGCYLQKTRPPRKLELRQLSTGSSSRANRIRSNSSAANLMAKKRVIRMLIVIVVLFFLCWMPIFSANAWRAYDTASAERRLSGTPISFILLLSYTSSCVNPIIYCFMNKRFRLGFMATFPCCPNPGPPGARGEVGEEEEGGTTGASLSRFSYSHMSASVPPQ
From the text: as §1

[6] = target: nAChR(a4/b2) (Homo sapiens, UniProt P17787+P43681); assay: SAFETYscan Ion Channel nAChR(a4/b2) Blocker; format: cell-based
From the text: as §1

[7] = target: HTR1B (Homo sapiens, UniProt P28222); assay: SAFETYscan cAMP HTR1B Agonist; format: cell-based
From the text: as §2

[8] = target: T4, GR (Homo sapiens, UniProt P04150); assay: SAFETYscan NHR Protein Interaction GR Antagonist; format: cell-based
T4 sequence (P04150 1-777): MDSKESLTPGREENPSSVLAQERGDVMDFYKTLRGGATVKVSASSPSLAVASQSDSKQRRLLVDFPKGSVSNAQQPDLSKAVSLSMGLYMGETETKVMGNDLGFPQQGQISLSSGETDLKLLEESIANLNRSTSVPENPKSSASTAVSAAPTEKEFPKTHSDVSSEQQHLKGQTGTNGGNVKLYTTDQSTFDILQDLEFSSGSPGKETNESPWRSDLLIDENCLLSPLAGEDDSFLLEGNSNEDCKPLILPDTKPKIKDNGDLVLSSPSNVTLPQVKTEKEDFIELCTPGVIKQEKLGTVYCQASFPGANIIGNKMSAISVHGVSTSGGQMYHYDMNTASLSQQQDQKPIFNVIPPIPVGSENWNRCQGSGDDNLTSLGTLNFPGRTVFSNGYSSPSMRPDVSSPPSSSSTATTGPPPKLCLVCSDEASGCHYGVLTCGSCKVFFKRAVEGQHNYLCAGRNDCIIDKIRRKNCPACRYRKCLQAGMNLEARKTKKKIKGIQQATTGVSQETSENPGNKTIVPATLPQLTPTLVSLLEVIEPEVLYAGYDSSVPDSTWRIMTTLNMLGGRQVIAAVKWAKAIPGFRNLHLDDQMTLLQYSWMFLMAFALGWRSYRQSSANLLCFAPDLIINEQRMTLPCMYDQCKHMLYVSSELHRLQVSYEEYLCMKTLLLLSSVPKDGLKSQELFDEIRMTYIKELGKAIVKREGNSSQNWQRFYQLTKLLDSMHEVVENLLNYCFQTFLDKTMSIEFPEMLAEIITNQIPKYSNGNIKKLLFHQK
From the text: as §1

[9] = target: CNR2 (Homo sapiens, UniProt P34972); assay: SAFETYscan cAMP CNR2 Antagonist; format: cell-based
From the text: as §1

[10] = target: VEGFR2 (Homo sapiens, UniProt P35968); assay: SAFETYscan Kinases Binding VEGFR2 Inhibitor
From the text: as §1

[11] = target: KvLQT1/minK (Homo sapiens, UniProt P51787); assay: SAFETYscan Ion Channel KvLQT1/minK Opener; format: cell-based
From the text: as §1

[12] = target: T3, CCKAR; assay: SAFETYscan Calcium Flux CCKAR Antagonist; format: cell-based
From the text: as §1

HTR1B, sequence (P28222 whole entry): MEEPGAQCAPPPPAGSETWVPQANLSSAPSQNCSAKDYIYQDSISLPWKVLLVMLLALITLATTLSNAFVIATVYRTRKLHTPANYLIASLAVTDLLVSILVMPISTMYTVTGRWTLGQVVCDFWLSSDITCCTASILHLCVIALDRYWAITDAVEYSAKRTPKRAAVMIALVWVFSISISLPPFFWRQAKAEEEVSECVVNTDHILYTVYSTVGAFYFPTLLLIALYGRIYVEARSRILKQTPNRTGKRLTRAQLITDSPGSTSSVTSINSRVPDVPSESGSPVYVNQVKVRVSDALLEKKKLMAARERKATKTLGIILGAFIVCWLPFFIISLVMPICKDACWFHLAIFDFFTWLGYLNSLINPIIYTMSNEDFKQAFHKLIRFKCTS
HTR2B, sequence (P41595 whole entry): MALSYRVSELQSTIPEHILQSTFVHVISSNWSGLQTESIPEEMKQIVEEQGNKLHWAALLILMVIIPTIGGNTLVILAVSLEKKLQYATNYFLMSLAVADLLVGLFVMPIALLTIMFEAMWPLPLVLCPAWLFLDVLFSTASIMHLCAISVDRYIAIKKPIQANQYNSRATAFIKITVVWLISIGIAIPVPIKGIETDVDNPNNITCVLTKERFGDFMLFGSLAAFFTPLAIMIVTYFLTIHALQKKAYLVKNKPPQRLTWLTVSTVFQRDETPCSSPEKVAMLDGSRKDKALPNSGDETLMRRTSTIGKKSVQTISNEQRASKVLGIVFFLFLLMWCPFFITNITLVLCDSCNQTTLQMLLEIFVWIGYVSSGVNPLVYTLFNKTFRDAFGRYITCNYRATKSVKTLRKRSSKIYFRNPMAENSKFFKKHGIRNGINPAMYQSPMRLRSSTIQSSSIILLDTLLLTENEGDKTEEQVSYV
OPRD1, sequence (P41143 whole entry): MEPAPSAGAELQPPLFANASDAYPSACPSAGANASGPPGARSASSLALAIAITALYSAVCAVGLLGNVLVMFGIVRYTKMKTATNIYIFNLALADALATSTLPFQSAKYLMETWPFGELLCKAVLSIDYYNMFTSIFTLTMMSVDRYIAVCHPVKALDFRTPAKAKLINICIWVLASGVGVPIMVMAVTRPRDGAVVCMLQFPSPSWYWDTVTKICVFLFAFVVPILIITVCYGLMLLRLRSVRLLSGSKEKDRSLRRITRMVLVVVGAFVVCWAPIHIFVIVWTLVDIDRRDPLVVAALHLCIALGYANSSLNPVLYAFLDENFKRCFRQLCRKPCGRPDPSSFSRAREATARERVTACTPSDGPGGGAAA
CNR2, sequence (P34972 whole entry): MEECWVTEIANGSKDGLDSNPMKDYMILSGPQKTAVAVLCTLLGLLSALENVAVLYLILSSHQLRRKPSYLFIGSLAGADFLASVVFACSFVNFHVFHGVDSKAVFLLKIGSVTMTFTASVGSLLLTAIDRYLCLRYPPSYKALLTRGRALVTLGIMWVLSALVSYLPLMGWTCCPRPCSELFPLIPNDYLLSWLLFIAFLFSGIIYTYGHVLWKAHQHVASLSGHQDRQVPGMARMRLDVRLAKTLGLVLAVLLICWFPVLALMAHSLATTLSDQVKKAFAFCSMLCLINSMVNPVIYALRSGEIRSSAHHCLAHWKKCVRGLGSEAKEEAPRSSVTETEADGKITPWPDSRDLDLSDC
VEGFR2, sequence (P35968 20-1356): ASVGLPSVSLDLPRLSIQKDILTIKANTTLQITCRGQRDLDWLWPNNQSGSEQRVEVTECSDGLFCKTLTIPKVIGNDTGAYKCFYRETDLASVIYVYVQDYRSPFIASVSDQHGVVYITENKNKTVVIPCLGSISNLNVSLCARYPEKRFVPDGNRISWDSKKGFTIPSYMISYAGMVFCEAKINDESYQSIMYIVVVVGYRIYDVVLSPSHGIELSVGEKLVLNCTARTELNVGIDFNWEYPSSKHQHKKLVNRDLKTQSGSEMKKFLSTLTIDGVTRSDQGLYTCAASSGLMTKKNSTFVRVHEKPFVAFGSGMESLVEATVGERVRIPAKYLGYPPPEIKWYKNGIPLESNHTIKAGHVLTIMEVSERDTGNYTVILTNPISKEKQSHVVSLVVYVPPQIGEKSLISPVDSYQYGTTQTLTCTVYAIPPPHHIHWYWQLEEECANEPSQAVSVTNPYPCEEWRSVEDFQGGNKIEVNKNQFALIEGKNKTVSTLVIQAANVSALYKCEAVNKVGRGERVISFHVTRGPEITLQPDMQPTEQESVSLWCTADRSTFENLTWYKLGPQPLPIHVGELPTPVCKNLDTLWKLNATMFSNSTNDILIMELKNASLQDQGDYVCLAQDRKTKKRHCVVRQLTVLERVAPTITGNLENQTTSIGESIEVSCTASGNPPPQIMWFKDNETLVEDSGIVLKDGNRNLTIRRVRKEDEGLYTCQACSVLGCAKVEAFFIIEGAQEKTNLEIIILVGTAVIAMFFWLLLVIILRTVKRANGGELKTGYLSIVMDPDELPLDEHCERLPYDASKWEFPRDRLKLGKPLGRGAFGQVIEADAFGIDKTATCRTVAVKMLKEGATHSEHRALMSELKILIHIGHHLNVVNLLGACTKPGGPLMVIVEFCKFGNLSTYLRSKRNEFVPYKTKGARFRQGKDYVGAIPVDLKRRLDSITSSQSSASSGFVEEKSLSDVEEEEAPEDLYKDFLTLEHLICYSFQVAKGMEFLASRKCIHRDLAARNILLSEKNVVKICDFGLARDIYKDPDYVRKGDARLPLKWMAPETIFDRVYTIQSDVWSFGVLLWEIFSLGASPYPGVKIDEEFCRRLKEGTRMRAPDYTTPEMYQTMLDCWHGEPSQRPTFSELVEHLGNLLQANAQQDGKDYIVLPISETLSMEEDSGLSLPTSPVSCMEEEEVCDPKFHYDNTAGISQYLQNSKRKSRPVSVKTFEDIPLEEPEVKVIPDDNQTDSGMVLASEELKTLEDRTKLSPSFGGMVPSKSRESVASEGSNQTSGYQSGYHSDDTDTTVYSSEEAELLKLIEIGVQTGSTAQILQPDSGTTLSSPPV
nAChR(a4/b2), sequence (P43681 29-627 limits assumed): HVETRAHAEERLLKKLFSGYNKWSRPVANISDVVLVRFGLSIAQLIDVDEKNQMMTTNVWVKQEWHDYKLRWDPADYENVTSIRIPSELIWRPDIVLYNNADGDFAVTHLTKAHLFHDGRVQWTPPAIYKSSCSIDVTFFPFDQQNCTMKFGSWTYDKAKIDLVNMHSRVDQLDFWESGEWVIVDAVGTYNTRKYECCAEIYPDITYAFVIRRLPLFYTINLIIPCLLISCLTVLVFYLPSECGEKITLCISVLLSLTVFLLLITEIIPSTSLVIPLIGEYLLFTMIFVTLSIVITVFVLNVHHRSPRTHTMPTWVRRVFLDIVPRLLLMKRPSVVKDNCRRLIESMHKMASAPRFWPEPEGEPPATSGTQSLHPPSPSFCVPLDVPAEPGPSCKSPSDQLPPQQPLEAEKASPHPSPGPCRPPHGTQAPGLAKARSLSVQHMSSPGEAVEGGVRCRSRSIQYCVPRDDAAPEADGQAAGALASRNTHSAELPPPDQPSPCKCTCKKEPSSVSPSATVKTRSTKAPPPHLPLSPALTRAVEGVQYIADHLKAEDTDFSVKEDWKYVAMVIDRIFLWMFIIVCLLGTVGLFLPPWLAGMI
nAChR(a4/b2), sequence (P17787 26-502): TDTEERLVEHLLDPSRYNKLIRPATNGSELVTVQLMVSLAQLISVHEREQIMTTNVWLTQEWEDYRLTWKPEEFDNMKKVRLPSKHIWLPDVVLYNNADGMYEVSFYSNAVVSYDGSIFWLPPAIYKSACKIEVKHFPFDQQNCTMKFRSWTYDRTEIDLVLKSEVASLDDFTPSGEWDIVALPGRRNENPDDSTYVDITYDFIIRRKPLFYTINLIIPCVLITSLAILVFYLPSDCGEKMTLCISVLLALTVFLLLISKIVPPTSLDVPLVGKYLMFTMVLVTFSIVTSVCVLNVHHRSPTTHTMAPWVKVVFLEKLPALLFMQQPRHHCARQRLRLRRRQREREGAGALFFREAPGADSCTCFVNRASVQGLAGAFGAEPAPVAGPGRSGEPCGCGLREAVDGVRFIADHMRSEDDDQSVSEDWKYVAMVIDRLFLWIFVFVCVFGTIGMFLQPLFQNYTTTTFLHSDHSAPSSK

## Cn1c(=O)c2c(c3cc(Nc4ccnc(F)c4Cl)ccc31)N[C@@H](C1CC1)C(F)(F)CO2 [compound 17, (S)-10-((3-chloro-2-fluoropyridin-4-yl)amino)-2-cyclopropyl-3,3-difluoro-7-methyl-1,2,3,4-tetrahydro-[1,4]oxazepino[2,3-c]quinolin-6(7H)-one]
[1]; read-out: Max Response
  Emax: 0%
[1]; read-out: RC50 (EC50)
  EC50: > 10 µM
[2]
  EC50: 2220 nM
[2]; CHRM2, cAMP, Agonist
  Hill: 1.63
[2]; CHRM2, cAMP, Agonist, read-out: Max Response
  Emax: 92.6%
[3]
  EC50: > 10 µM
[3]; OPRD1, cAMP, Agonist, read-out: Max Response
  Emax: 23.6%
[4]
  EC50: > 10 µM
[4]; HTR2B, Calcium Flux, Agonist, read-out: Max Response
  Emax: 0%
[5]; read-out: Max Response
  Emax: 0.06%
[5]; read-out: RC50 (EC50)
  EC50: > 10 µM
[6]
  IC50: > 10 µM
[6]; nAChR(a4/b2), Ion Channel, Blocker, read-out: Max Response
  Emax: 0%
[7]
  EC50: 9.13 µM
[7]; HTR1B, cAMP, Agonist
  Hill: 0.76
[7]; HTR1B, cAMP, Agonist, read-out: Max Response
  Emax: 50.3%
[8]; read-out: Max Response
  Emax: 12.3%
[8]; read-out: RC50 (IC50)
  IC50: > 10 µM
[9]
  IC50: > 10 µM
[9]; CNR2, cAMP, Antagonist, read-out: Max Response
  Emax: 0%
[10]; read-out: Max Response
  Emax: 0%
[10]; read-out: RC50 (IC50)
  IC50: > 10 µM
[11]; read-out: Max Response
  Emax: 1.07%
[11]; read-out: RC50 (EC50)
  EC50: > 10 µM
[12]; read-out: Max Response
  Emax: 0%
[12]; read-out: RC50 (IC50)
  IC50: > 10 µM
